Two compounds from ChEMBL document CHEMBL4725252, “Development of an efficient semisynthetic modification of FR901459 via a novel regioselective N, O-acyl migration” (Bioorg Med Chem Lett, 2020) can be followed below.

In brackets after ≈: the same amount, converted by molar mass. Square brackets hold non-standard residues; d marks the D form. Peptide text beside a SMILES is read from it. MeBmt = C/C=C/C[C@@H](C)[C@@H](O)[C@H](NC)C(=O)O; NMeL = CN[C@@H](CC(C)C)C(=O)O; NMeV = CN[C@H](C(=O)O)C(C)C; Sar = CNCC(=O)O

Test [1] concerns Hepatitis C virus. The test is described as follows: Ratio of EC50 for FR901459 to EC50 for test compound for antiviral activity against HCV subgenomic replicon assessed as inhibition of replication by qRT-PCR analysis. The format is functional, Hepacivirus hominis. For orientation: A replicon is a self-replicating genome or part of one, used to study replication in cells.
The subject of test [2] is Hepatitis C virus. The test is described as follows: Antiviral activity against HCV subgenomic replicon assessed as inhibition of replication by qRT-PCR analysis. It counts as functional, organism-based, Hepacivirus hominis.

As to `C/C=C/C[C@@H](C)[C@@H](O)[C@H]1C(=O)N[C@@H]([C@@H](C)O)C(=O)N(C)[C@H](C)C(=O)N(C)[C@@H](CC(C)C)C(=O)N[C@@H](CC(C)C)C(=O)N(C)[C@@H](CC(C)C)C(=O)N[C@@H](C)C(=O)N[C@H](C)C(=O)N(C)[C@@H](CC(C)C)C(=O)N[C@@H](CC(C)C)C(=O)N(C)[C@@H](C(C)C)C(=O)N1C`, in the test with Hepatitis C virus [1], the “Ratio EC50” value was found to be 2.5. In addition, in the test on Hepatitis C virus [2], the EC50 was 0.038 µg/mL (≈ 0.0308 µM). In the case of `C/C=C/C[C@@H](C)[C@@H](O)[C@H]1C(=O)N[C@@H]([C@@H](C)O)C(=O)N(C)CC(=O)N(C)[C@@H](CC(C)C)C(=O)N[C@@H](CC(C)C)C(=O)N(C)[C@@H](CC(C)C)C(=O)N[C@@H](C)C(=O)N[C@H](C)C(=O)N(C)[C@@H](CC(C)C)C(=O)N[C@@H](CC(C)C)C(=O)N(C)[C@@H](C(C)C)C(=O)N1C` (cyclo(A[dA][NMeL]L[NMeV][MeBmt]T[Sar][NMeL]L[NMeL])), in the test on Hepatitis C virus [2], the concentration giving a half-maximal response (EC50) worked out at 0.096 µg/mL (≈ 0.0788 µM).

Usually EC50 stands for the concentration at which the effect is half-maximal.
